The values that follow are results of earlier work, collected in patent publication US20070184110A1, “Dipyridamole extended-release formulations and process for preparing same” (priority 2006, published 2007).

The conditions of the series: above a pH of 4.

Each structure is given as a SMILES string.

Regarding `OCCN(CCO)c1nc(N2CCCCC2)c2nc(N(CCO)CCO)nc(N3CCCCC3)c2n1` [Dipyridamole, 2,6-bis-(diethanolamino)-4,8-dipiperidino-(5,4-d)-pyrimidine], the solubility in water result was “practically insoluble”.
